Test system: KB
Test: Cytotoxicity against human KB cells
Assay type: functional, cell-based

For `C#CCCC[C@@H](O)[C@@H](C)[C@@H]1C/C=C(\C)C(=O)O[C@H](CC(C)C)C(=O)N[C@@H](C)C(=O)N(C)[C@H](Cc2ccccc2)C(=O)N(C)CC(=O)N[C@H]([C@H](C)CC)C(=O)N(C)[C@@H](C)C(=O)O1` [PALAU'AMIDE], which IC50 is on record?
The IC50 was 13 nM.
